The term IC50 denotes the midpoint of a concentration-inhibition curve. As a reminder, the EC50 is the midpoint of the concentration-response curve. A high value points to lower potency in that assay.

Experiment [1] concerns the target T1, Potassium channel subfamily K member 10 (Rattus norvegicus, UniProt Q9JIS4).
T1 sequence (Q9JIS4 whole entry): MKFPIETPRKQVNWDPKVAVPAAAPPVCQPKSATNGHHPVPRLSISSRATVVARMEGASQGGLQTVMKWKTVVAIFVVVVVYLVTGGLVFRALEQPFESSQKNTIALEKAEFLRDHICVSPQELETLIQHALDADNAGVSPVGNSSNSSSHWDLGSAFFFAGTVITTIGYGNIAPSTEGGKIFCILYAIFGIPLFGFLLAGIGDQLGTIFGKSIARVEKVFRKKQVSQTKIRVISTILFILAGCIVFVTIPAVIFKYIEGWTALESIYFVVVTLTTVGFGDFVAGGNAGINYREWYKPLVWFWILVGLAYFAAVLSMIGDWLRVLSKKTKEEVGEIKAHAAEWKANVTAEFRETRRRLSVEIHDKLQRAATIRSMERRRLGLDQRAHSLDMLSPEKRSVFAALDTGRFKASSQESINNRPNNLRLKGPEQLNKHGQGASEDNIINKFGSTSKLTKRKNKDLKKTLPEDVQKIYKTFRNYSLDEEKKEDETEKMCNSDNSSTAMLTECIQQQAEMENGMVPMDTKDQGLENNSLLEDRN
As to the kind of experiment: Inhibition of rat TREK2 channel -mediated current expressed in HEK293 at 60 mV holding potential by patch clamp method. Type of experiment: cell-based.

Experiment [2] addresses T1, Potassium channel subfamily K member 10. Kind of experiment: Activation of rat TREK2 channel -mediated current expressed in HEK293 at 60 mV holding potential by patch clamp method. Format: cell-based.

SMILES strings stand for the structures. Bounds are passed on as bounds.

Molecule `Cc1ccc(S(=O)(=O)Nc2ccc(C(=O)/C=C/c3ccccc3)cc2)cc1` displayed an IC50 in experiment [1] of more than 100 µM.
The molecule `COc1ccc(/C=C/C(=O)c2ccc(NS(=O)(=O)c3ccc(C)cc3)cc2)cc1` registered an IC50 in experiment [1] of 100 µM.
On the same count and under the same terms, then `Cc1ccc(S(=O)(=O)Nc2ccc(C(=O)/C=C/c3ccc(O)cc3)cc2)cc1`, with 62 µM.
Take `Cc1ccc(S(=O)(=O)Oc2ccc(C(=O)/C=C/c3ccc(O)cc3)cc2)cc1`: in experiment [2], a half-maximal effect (EC50) was put at 167 µM.

(Values after ChEMBL document CHEMBL1177785, “Chemoselective regulation of TREK2 channel: activation by sulfonate chalcones and inhibition by sulfonamide chalcones” (Bioorg Med Chem Lett, 2010).)
